Where a name gives a salt, the structure may show the parent alone.
Key:
Format in all cases: in vivo, C57BL/6 mice
terminal ileum [1] = assay: PAT: ileal expression by qPCR in 6-week mice; conditions: 6-week male mice, 3 pulses, vs control
Method: Total RNA was extracted from mouse tissues using the RNeasy Mini Kit (Qiagen), according to the manufacturer's instructions. Total RNA was reverse transcribed to cDNA using the Verso™ cDNA Synthesis Kit (Thermo Scientific). To generate standards for expression analysis of each target gene, the cDNA region of interest was PCR-amplified and the PCR product was cloned into pGEM-T easy (Promega). qPCR was performed with LightCycler 480 SYBR Green I Master mix (Roche) and run in a LightCycler 480 system (Roche). Target mRNA was normalized to GAPDH mRNA as an internal control in each sample.
C57BL/6 mice were fed a standard diet after weaning, and exposed to 3 pulses of therapeutic dose antibiotics (Amoxicillin or Tylosin), or no antibiotics, via their drinking water, all before 6 weeks of age. Mice were sacrificed at 6 weeks of age.
The distal ileum (1 cm) without Peyer's Patches was collected from each mouse for RNA extraction and kept in RNAlater (Ambion) overnight at 4° C. Samples were stored at −80° C. until RNA extraction was performed.
Panel A: Mice were exposed to 3 pulses of antibiotics (Amoxicillin or Tylosin), or no antibiotics, via breast milk or drinking water at the indicated time points. Panel B: Male mice, including 5 Control, 4 Amoxicillin, and 6 Tylosin, were fed a normal diet. They were sacrificed at 6 weeks of age and the terminal[1 cm] ileum without Peyer's Patches [TI-] was collected.
Ileal expression of T-bet and IFN-γ [Th1], GATA3 and IL-4 [Th2], Foxp3, and TGFβ1 [Treg], and RORγt, IL-17A, and IL-17F [Th17] (Control n=5, Amoxicillin n=4, Tylosin n=6) was quantitated with qPCR and normalized by GAPDH expression. Expression of T-bet and IFNγ [Th1] (p<0.05) and IL-17A and IL-17F [Th17] […] Foxp3 and RORγt were lower in Tylosin than control. This example extends the earlier observation that continuous antibiotics affect ileal immune cell populations and effectors by showing that pulses are sufficient to produce similar effects.

terminal ileum [2] = assay: PAT: ileal gene expression profiling by whole genome microarray, 6-week mice; conditions: 6-week PAT vs Control, T-test p<0.05 and fold change ≧1.2 or ≦0.8
Method: Ileal gene expression profiling of STAT, PAT, and control animal groups, was performed using the Affymetrix Genechip system (Affymetrix). Total RNA quality and quantity were determined using the Agilent 2100 Bioanalyser and Nanodrop ND-1000. Total RNA (100 ng) was used to prepare cDNA following the Affymetrix […] Express Kit labelling protocol (Affymetrix). Standardized array processing procedures recommended by Affymetrix were performed, including hybridization, fluidics processing and scanning of the Affymetrix MG-430 2.0 arrays. GeneSpring GX11 software (Agilent Technologies) was used to normalize the raw data (Affymetrix CEL files) by Robust Multichip Average algorithm (RMA).
1127 and 3065 reproducibly regulated genes were identified from ˜45,000 genes of the mouse genome by T-test (p<0.05) and fold change (≧1.2 or ≦0.8) in 6-week PAT (Panel A; Control vs Amoxicillin and Panel B; Control vs Tylosin), respectively (FIG. 22). DAVID analysis was performed using the regulated genes, and Gene Set Enrichment analysis (GSEA) was performed using whole gene data.
(C, n=3), amoxicillin (A, n=3), and tylosin treated mice (T, n=3).

[3] = system: intestinal microbial communities; assay: EL-PAT: 16S rRNA V4 sequencing of fecal, ileal and cecal microbiota
Method: For the experiments, dams and their litters were divided into control and antibiotic groups. In the EL-PAT study dams in the antibiotic groups received Tylosin tartrate (Sigma Aldrich, St. Louis Mo.) dissolved in distilled deionized water (neutral pH) at a concentration of 0.33 mg/ml, and dams in the control group received non-acidified water. Mice in the PAT3 group received two additional doses of antibiotics at day 27 and 36 of life for 3 days. In some experiments, C57BL/6 mice were exposed to one, PAT1, (n=17, M=9, F=8) or three, PAT3, (n=19, M=10, F=9) doses of the macrolide Tylosin in non-acidified water or non-acidified water alone (control, n=12, M=9, F=3), early-in-life, to mirror pediatric antibiotic exposures. For the first antibiotic pulse […] of Tylosin tartrate (Sigma) was dissolved in 250 ml of non-acidified water and given to PAT1 and PAT3 lactating dams at pup day 5 of life for 5 days. For the second and third pulse, pups received the antibiotic directly at day 27 and day 36 of life respectively, for three days. Mice were sacrificed at 7 weeks of age and fecal, ileal and cecal contents were collected. Throughout the experiment mouse weight and fecal contents were collected. Fecal, ileal and cecal DNA were extracted using Mobio 96-well extraction kit (MO BIO Laboratories, Inc., CA). For amplicon library generation, the V4 region of 16s rRNA gene was amplified with gene specific primers (SEQ ID NOS: 39-43). Amplicons were prepared in triplicate, pooled and quantified. The 254 bp V4 region was sequenced using the Illumina MiSeq 2×150 bp platform (Illumina Inc., CA). Forward and reverse reads were joined using the ea-utils module fastq-join. Demultiplexing and operational taxonomic unit (OTU) picking were performed using the bioinformatic tool Qiime, while pair-end reads were demultiplexed with the script split_libraries_fastq.py. Reads were quality filtered at a phred score of 20 using -q flag, and the flag --rev_comp_mapping allowed reading of the reverse complement barcode before demultiplexing. Open referenced OTU picking was performed using pick_open_reference_otus.py script to assign a taxonomy for each OTU representative sequence and build a phylogenetic tree, and an OTU table. For alpha and beta diversity, samples were rarified at a sequencing depth of 1000.

[4] = PAT3 group, two additional doses
[5] = at sacrifice, six-weeks (PAT1) and one-week (PAT3) after last pulse
[6] = one therapeutic dose, dams and offspring

Compound: CC[C@H]1OC(=O)C[C@@H](O)[C@H](C)[C@@H](O[C@@H]2O[C@H](C)[C@@H](O[C@H]3C[C@@](C)(O)[C@@H](O)[C@H](C)O3)[C@H](N(C)C)[C@H]2O)[C@@H](CC=O)C[C@@H](C)C(=O)/C=C/C(C)=C/[C@@H]1CO[C@@H]1O[C@H](C)[C@@H](O)[C@@H](OC)[C@H]1OC [Tylosin, Tylosin tartrate]
- ileal expression of Foxp3 (terminal ileum [1]): lower
- ileal expression of RORγt (terminal ileum [1]): lower
- ileal expression of IFNγ [Th1] (terminal ileum [1]; p<0.05): significantly lower
- ileal expression of IL-17A [Th17] (terminal ileum [1]; p<0.05): significantly lower
- ileal expression of IL-17F [Th17] (terminal ileum [1]; p<0.05): significantly lower
- ileal expression of T-bet [Th1] (terminal ileum [1]; p<0.05): significantly lower
- reproducibly regulated genes out of ~45,000 genes of the mouse genome (terminal ileum [2]): 3065
- relative abundance of Blautia producta [3, 4]: blooms
- relative abundance of family Enterobacteriaceae [3, 4]: blooms
- ileal evenness [3, 5]: decreases
- ileal richness [3, 5]: decreases
- abundance of Bifidobacterium (ileal, LEfSe) ([3]; early-life PAT): decreases
- abundance of S24-7 (ileal, LEfSe) ([3]; early-life PAT): decreases
- abundance of SFB (ileal, LEfSe) ([3]; early-life PAT): decreases
- relative abundance of Akkermansia muciniphila (ileal, LEfSe) ([3]; early-life PAT): increases
- ileal microbial communities (PCoA, Jenson-Shannon divergence) ([3]; male and female, independent of sex): significantly different from Control
- fecal, cecal and ileal microbial diversity (phylogenetic diversity) ([3]; male pups over time, one or three pulses vs Control): decreases
- intestinal microbial populations (PCoA, weighted Unifrac) ([3]; one and three therapeutic doses early in life, males and females): significantly alters
- Segemented Filamentous Bacteria [3, 6]: loss
- relative abundance of Bacteroides uniformis [3, 6]: blooms
- relative abundance of Akkermansia muciniphila ([3]; one therapeutic dose, dams and offspring, fecal, ileal and cecal samples): blooms
